From ChEMBL document CHEMBL1201862, “PubChem BioAssay data set” (2004)
Activity calls are given as the source filed them. Rule as the data show it: actives have a measured IC50 and inactives only a lower limit.

Molecular target: Envelope glycoprotein gp160 (Human immunodeficiency virus 1, UniProt Q6QLK5)
Experiment: inhibitors of HIV fusion peptide binding, primary screen, biochemical, uHTS, fluorescence dequenching (AID 1986)

Chain of Envelope glycoprotein gp160 (Q6QLK5 whole entry, the tested form may be a part): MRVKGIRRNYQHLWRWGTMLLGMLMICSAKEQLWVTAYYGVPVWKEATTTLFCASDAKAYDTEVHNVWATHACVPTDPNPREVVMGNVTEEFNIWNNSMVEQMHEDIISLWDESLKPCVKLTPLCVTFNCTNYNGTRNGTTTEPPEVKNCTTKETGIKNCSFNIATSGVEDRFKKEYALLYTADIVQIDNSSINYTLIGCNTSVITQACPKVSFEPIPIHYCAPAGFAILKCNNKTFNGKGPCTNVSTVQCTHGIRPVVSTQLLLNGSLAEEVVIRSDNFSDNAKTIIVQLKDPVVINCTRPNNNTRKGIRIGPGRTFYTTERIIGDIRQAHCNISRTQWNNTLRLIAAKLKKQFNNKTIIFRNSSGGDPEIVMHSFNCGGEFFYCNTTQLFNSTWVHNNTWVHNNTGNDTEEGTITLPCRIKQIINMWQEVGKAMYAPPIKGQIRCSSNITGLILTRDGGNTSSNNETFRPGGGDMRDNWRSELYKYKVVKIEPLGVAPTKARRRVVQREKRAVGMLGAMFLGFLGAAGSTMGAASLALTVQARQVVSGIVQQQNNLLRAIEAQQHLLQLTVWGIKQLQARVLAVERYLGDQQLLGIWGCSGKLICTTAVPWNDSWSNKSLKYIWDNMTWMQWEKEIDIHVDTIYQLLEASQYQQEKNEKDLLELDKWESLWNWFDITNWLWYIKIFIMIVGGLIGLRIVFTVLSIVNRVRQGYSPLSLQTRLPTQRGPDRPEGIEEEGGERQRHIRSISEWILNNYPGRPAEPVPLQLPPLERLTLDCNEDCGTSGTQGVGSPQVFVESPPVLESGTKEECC

## O=C(O)CSc1cc(C(=O)c2ccccc2O)cn2c(=O)c3c4c(sc3nc12)CCCC4
  IC50: 20.7 µM (active)
